Experimental findings from patent publication US20240199534A1 (Mitochondria Emotion, Inc., priority 2021, published 2024) are described below.

SMILES strings stand for the structures. Read-outs that look alike come from different tables or passages of the source.

The nature of data set [1]: In vivo pharmacokinetics IV and PO (Table 1A). Also on record: species or system mouse. As to conditions: for Tmax: PO, mouse plasma.
A further data set deals with T1, MFN2 (Mus musculus, UniProt Q80U63).
T1 sequence (Q80U63 1-757): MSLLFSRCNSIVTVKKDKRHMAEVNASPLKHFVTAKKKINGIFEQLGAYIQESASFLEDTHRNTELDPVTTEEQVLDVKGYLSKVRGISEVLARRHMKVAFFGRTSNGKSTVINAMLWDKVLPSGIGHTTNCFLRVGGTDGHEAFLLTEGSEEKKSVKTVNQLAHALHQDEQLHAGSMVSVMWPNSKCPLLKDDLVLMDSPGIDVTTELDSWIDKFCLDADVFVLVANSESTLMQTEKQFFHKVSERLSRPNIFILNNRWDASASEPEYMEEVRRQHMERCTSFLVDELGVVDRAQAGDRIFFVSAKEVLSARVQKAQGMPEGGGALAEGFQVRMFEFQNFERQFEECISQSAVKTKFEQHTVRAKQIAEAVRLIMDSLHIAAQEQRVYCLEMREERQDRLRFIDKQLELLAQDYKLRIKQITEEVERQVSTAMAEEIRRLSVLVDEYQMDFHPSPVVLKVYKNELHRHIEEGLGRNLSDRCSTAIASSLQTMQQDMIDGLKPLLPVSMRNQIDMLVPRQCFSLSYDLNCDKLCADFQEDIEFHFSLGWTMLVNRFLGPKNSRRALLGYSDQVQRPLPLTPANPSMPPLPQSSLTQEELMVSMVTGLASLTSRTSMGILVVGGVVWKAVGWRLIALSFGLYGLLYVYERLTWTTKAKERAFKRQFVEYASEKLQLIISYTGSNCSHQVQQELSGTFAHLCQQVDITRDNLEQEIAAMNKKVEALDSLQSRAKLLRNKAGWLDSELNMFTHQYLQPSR
Kind of data set: Mitofusin activation (MFN activity), EC50. The class given is cell-based. The note with it: stereoisomeric configurations of Compound 2. As for the experimental part: Mitochondria were then stained with MitoTracker Orange (200 nM; M7510; Invitrogen, Carlsbad, CA, USA). Nuclei were stained with Hoescht (10 μg/ml; Invitrogen, Thermo Fisher Scientific Cat: #H3570). […] Response curves were interpolated using the sigmoidal model using Prism 8 software.
Testing details for the MFN activity and PAMPA assay are provided in U.S. Patent Applications 2020/034566 and 2020/0345669, incorporated herein by reference.

Turning to `O=C(N[C@H]1CC[C@H](O)CC1)C1CC1CCCc1ccccc1` (mixture of isomers) [Compound 2, N-((1r,4r)-4-hydroxycyclohexyl)-2-(3-phenylpropyl)cyclopropane-1-carboxamide], the Vd in data set [1] (male, CD-1, mouse, plasma, iv, 10 mg/kg, read-out: Vdss) is 0.6 L/kg. This molecule yielded a bioavailability in data set [1] (male, CD-1, mouse, plasma, po, 50 mg/kg) of 59%. The mean residence time MRT in data set [1] (male, CD-1, mouse, plasma, single 50 mg/kg oral dose, read-out: mean tissue residence time (MRT)) was 215 min. In addition, the Tmax in data set [1] (male, CD-1, 50 mg/kg, read-out: Tmax) was found to be 30 min.
As for `O=C(CCCCCc1ccccc1)N[C@H]1CC[C@H](O)CC1` [Compound 1, N-(trans-4-hydroxycyclohexyl)-6-phenylhexanamide, reference compound], the “Tmax” value in data set [1] (50 mg/kg) amounted to 30 min.
As to `O=C(N[C@H]1CC[C@H](O)CC1)[C@@H]1C[C@H]1CCCc1ccccc1` [Compound 2A, (1R,2R)-N-((1r,4R)-4-hydroxycyclohexyl)-2-(3-phenylpropyl)cyclopropane-1-carboxamide], at MFN2, the “activity toward promoting mitofusin activation” value is reported as “active toward promoting mitofusin activation”.
